# Data published in ChEMBL document CHEMBL3526147, “Tissue distribution and characterization of drug-related material in rats and dogs after repeated oral administration of casopitant” (Drug Metab Dispos, 2011).
# Legend:
# Set-up in all cases: dosed compound name [14C]Casopitant, route oral
# Conditions in all cases: in vivo
# Kidney [1] = assay: Drug level in Sprague-Dawley rat kidney assessed as free base level at 60 mg/kg/day, po administered as single dose measured after 24 hrs on day 1; format: ADME, organism-based
# [2] = Drug level in Sprague-Dawley rat myocardium assessed as free base level at 60 mg/kg/day, po administered as repeat dose measured after 24 hrs on day 27; format: ADME, organism-based
# [3] = Drug level in beagle dog skeletal muscle assessed as free base level at 40 mg/kg/day, po administered as repeat dose measured after 24 hrs on day 34; format: ADME, organism-based, Canis lupus familiaris, Muscle tissue
# Plasma [4] = assay: Drug level in Sprague-Dawley rat plasma assessed as free base level at 60 mg/kg/day, po administered as repeat dose measured after 24 hrs on day 27; format: ADME, organism-based
# Liver [5] = assay: Drug level in Sprague-Dawley rat liver assessed as free base level at 60 mg/kg/day, po administered as repeat dose measured after 24 hrs on day 40; format: ADME, organism-based
# [6] = Drug level in beagle dog myocardium assessed as free base level at 40 mg/kg/day, po administered as repeat dose measured after 24 hrs on day 14; format: ADME, organism-based, Canis lupus familiaris
# [7] = Drug level in beagle dog kidney assessed as free base level at 40 mg/kg/day, po administered as repeat dose measured after 24 hrs on day 34; format: ADME, organism-based, Canis lupus familiaris
# Liver [8] = assay: Drug level in beagle dog liver assessed as free base level at 40 mg/kg/day, po administered as repeat dose measured after 24 hrs on day 14; format: ADME, organism-based, Canis lupus familiaris
# [9] = Drug level in beagle dog blood assessed as free base level at 40 mg/kg/day, po administered as single dose measured after 24 hrs on day 1; format: ADME, organism-based, Canis lupus familiaris
# Plasma [10] = assay: Drug level in Sprague-Dawley rat plasma assessed as free base level at 60 mg/kg/day, po administered as single dose measured after 24 hrs on day 1; format: ADME, organism-based
# Plasma [11] = assay: Drug level in Sprague-Dawley rat plasma assessed as free base level at 60 mg/kg/day, po administered as single dose measured after 2 hrs on day 20; format: ADME, organism-based
# [12] = Drug level in beagle dog blood assessed as free base level at 40 mg/kg/day, po administered as repeat dose measured after 2 hrs on day 14; format: ADME, organism-based, Canis lupus familiaris
# Blood [13] = assay: Drug level in Sprague-Dawley rat blood assessed as free base level at 60 mg/kg/day, po administered as single dose measured after 24 hrs on day 1; format: ADME, organism-based
# [14] = Drug level in Sprague-Dawley rat skeletal muscle assessed as free base level at 60 mg/kg/day, po administered as repeat dose measured after 24 hrs on day 27; format: ADME, organism-based, Muscle tissue
# [15] = Drug level in Sprague-Dawley rat skeletal muscle assessed as free base level at 60 mg/kg/day, po administered as repeat dose measured after 24 hrs on day 20; format: ADME, organism-based, Muscle tissue
# Liver [16] = assay: Drug level in Sprague-Dawley rat liver assessed as free base level at 60 mg/kg/day, po administered as single dose measured after 24 hrs on day 1; format: ADME, organism-based
# Blood [17] = assay: Drug level in Sprague-Dawley rat blood assessed as free base level at 60 mg/kg/day, po administered as repeat dose measured after 24 hrs on day 20; format: ADME, organism-based
# Plasma [18] = assay: Drug level in Sprague-Dawley rat plasma assessed as free base level at 60 mg/kg/day, po administered as single dose measured after 2 hrs on day 1; format: ADME, organism-based
# Plasma [19] = assay: Drug level in Sprague-Dawley rat plasma assessed as free base level at 60 mg/kg/day, po administered as repeat dose measured after 24 hrs on day 40; format: ADME, organism-based
# Plasma [20] = assay: Drug level in beagle dog plasma assessed as free base level at 40 mg/kg/day, po administered as single dose measured after 2 hrs on day 1; format: ADME, organism-based, Canis lupus familiaris
# [21] = Drug level in beagle dog skeletal muscle assessed as free base level at 40 mg/kg/day, po administered as repeat dose measured after 24 hrs on day 14; format: ADME, organism-based, Canis lupus familiaris, Muscle tissue
# Kidney [22] = assay: Drug level in Sprague-Dawley rat kidney assessed as free base level at 60 mg/kg/day, po administered as repeat dose measured after 24 hrs on day 40; format: ADME, organism-based
# Liver [23] = assay: Drug level in Sprague-Dawley rat liver assessed as free base level at 60 mg/kg/day, po administered as repeat dose measured after 24 hrs on day 27; format: ADME, organism-based
# Plasma [24] = assay: Drug level in beagle dog plasma assessed as free base level at 40 mg/kg/day, po administered as single dose measured after 24 hrs on day 1; format: ADME, organism-based, Canis lupus familiaris
# [25] = Drug level in Sprague-Dawley rat myocardium assessed as free base level at 60 mg/kg/day, po administered as repeat dose measured after 24 hrs on day 20; format: ADME, organism-based
# [26] = Drug level in beagle dog myocardium assessed as free base level at 40 mg/kg/day, po administered as repeat dose measured after 24 hrs on day 34; format: ADME, organism-based, Canis lupus familiaris
# Lung [27] = assay: Drug level in Sprague-Dawley rat lung assessed as free base level at 60 mg/kg/day, po administered as repeat dose measured after 24 hrs on day 27; format: ADME, organism-based
# [28] = Drug level in beagle dog blood assessed as free base level at 40 mg/kg/day, po administered as single dose measured after 2 hrs on day 1; format: ADME, organism-based, Canis lupus familiaris
# Liver [29] = assay: Drug level in beagle dog liver assessed as free base level at 40 mg/kg/day, po administered as repeat dose measured after 24 hrs on day 34; format: ADME, organism-based, Canis lupus familiaris
# Blood [30] = assay: Drug level in Sprague-Dawley rat blood assessed as free base level at 60 mg/kg/day, po administered as repeat dose measured after 24 hrs on day 40; format: ADME, organism-based
# Blood [31] = assay: Drug level in Sprague-Dawley rat blood assessed as free base level at 60 mg/kg/day, po administered as repeat dose measured after 24 hrs on day 27; format: ADME, organism-based
# Plasma [32] = assay: Drug level in beagle dog plasma assessed as free base level at 40 mg/kg/day, po administered as repeat dose measured after 24 hrs on day 34; format: ADME, organism-based, Canis lupus familiaris
# Kidney [33] = assay: Drug level in Sprague-Dawley rat kidney assessed as free base level at 60 mg/kg/day, po administered as repeat dose measured after 24 hrs on day 20; format: ADME, organism-based
# [34] = Drug level in beagle dog blood assessed as free base level at 40 mg/kg/day, po administered as repeat dose measured after 24 hrs on day 14; format: ADME, organism-based, Canis lupus familiaris
# [35] = Drug level in beagle dog lung assessed as free base level at 40 mg/kg/day, po administered as repeat dose measured after 24 hrs on day 14; format: ADME, organism-based, Canis lupus familiaris
# [36] = Drug level in Sprague-Dawley rat myocardium assessed as free base level at 60 mg/kg/day, po administered as single dose measured after 24 hrs on day 1; format: ADME, organism-based
# Plasma [37] = assay: Drug level in beagle dog plasma assessed as free base level at 40 mg/kg/day, po administered as repeat dose measured after 24 hrs on day 14; format: ADME, organism-based, Canis lupus familiaris
# [38] = Drug level in beagle dog kidney assessed as free base level at 40 mg/kg/day, po administered as repeat dose measured after 24 hrs on day 14; format: ADME, organism-based, Canis lupus familiaris
# [39] = Drug level in beagle dog lung assessed as free base level at 40 mg/kg/day, po administered as repeat dose measured after 24 hrs on day 34; format: ADME, organism-based, Canis lupus familiaris
# [40] = Drug level in Sprague-Dawley rat myocardium assessed as free base level at 60 mg/kg/day, po administered as repeat dose measured after 24 hrs on day 40; format: ADME, organism-based
# Liver [41] = assay: Drug level in Sprague-Dawley rat liver assessed as free base level at 60 mg/kg/day, po administered as repeat dose measured after 24 hrs on day 20; format: ADME, organism-based
# Lung [42] = assay: Drug level in Sprague-Dawley rat lung assessed as free base level at 60 mg/kg/day, po administered as single dose measured after 24 hrs on day 1; format: ADME, organism-based
# [43] = Drug level in beagle dog blood assessed as free base level at 40 mg/kg/day, po administered as repeat dose measured after 24 hrs on day 34; format: ADME, organism-based, Canis lupus familiaris
# Lung [44] = assay: Drug level in Sprague-Dawley rat lung assessed as free base level at 60 mg/kg/day, po administered as repeat dose measured after 24 hrs on day 20; format: ADME, organism-based
# Plasma [45] = assay: Drug level in Sprague-Dawley rat plasma assessed as free base level at 60 mg/kg/day, po administered as repeat dose measured after 24 hrs on day 20; format: ADME, organism-based
# [46] = Drug level in Sprague-Dawley rat skeletal muscle assessed as free base level at 60 mg/kg/day, po administered as single dose measured after 24 hrs on day 1; format: ADME, organism-based, Muscle tissue
# [47] = Drug level in Sprague-Dawley rat skeletal muscle assessed as free base level at 60 mg/kg/day, po administered as repeat dose measured after 24 hrs on day 40; format: ADME, organism-based, Muscle tissue
# Plasma [48] = assay: Drug level in beagle dog plasma assessed as free base level at 40 mg/kg/day, po administered as repeat dose measured after 2 hrs on day 14; format: ADME, organism-based, Canis lupus familiaris
# Lung [49] = assay: Drug level in Sprague-Dawley rat lung assessed as free base level at 60 mg/kg/day, po administered as repeat dose measured after 24 hrs on day 40; format: ADME, organism-based
# Kidney [50] = assay: Drug level in Sprague-Dawley rat kidney assessed as free base level at 60 mg/kg/day, po administered as repeat dose measured after 24 hrs on day 27; format: ADME, organism-based
smiles,measurement,setting,value
CC(=O)N1CCN([C@H]2CCN([14C](=O)N(C)[C@H](C)c3cc(C(F)(F)F)cc(C(F)(F)F)c3)[C@@H](c3ccc(F)cc3C)C2)CC1.CS(=O)(=O)O,Radiolabel recovery,Kidney [1],59.1 ugequiv/g
same,Radiolabel recovery,[2],32.9 ugequiv/g
same,Radiolabel recovery,[3],21.3 ugequiv/g
same,Radiolabel recovery,Plasma [4],1.92 ugequiv/g
same,Radiolabel recovery,Liver [5],90.4 ugequiv/g
same,Radiolabel recovery,[6],243 ugequiv/g
same,Radiolabel recovery,[7],102 ugequiv/g
same,Radiolabel recovery,Liver [8],1050 ugequiv/g
same,Radiolabel recovery,[9],9.4 ugequiv/g
same,Radiolabel recovery,Plasma [10],5.54 ugequiv/g
same,Radiolabel recovery,Plasma [11],18.5 ugequiv/g
same,Radiolabel recovery,[12],47.4 ugequiv/g
same,Radiolabel recovery,Blood [13],5.6 ugequiv/g
same,Radiolabel recovery,[14],10.7 ugequiv/g
same,Radiolabel recovery,[15],28.1 ugequiv/g
same,Radiolabel recovery,Liver [16],121 ugequiv/g
same,Radiolabel recovery,Blood [17],14.5 ugequiv/g
same,Radiolabel recovery,Plasma [18],6.06 ugequiv/g
same,Radiolabel recovery,Plasma [19],0.246 ugequiv/g
same,Radiolabel recovery,Plasma [20],20.8 ugequiv/g
same,Radiolabel recovery,[21],99.2 ugequiv/g
same,Radiolabel recovery,Kidney [22],39.2 ugequiv/g
same,Radiolabel recovery,Liver [23],240 ugequiv/g
same,Radiolabel recovery,Plasma [24],9.68 ugequiv/g
same,Radiolabel recovery,[25],79.6 ugequiv/g
same,Radiolabel recovery,[26],96.2 ugequiv/g
same,Radiolabel recovery,Lung [27],136 ugequiv/g
same,Radiolabel recovery,[28],11.3 ugequiv/g
same,Radiolabel recovery,Liver [29],612 ugequiv/g
same,Radiolabel recovery,Blood [30],3.63 ugequiv/g
same,Radiolabel recovery,Blood [31],7.67 ugequiv/g
same,Radiolabel recovery,Plasma [32],11.6 ugequiv/g
same,Radiolabel recovery,Kidney [33],256 ugequiv/g
same,Radiolabel recovery,[34],35.3 ugequiv/g
same,Radiolabel recovery,[35],905 ugequiv/g
same,Radiolabel recovery,[36],34.6 ugequiv/g
same,Radiolabel recovery,Plasma [37],49.2 ugequiv/g
same,Radiolabel recovery,[38],308 ugequiv/g
same,Radiolabel recovery,[39],345 ugequiv/g
same,Radiolabel recovery,[40],26.7 ugequiv/g
same,Radiolabel recovery,Liver [41],545 ugequiv/g
same,Radiolabel recovery,Lung [42],135 ugequiv/g
same,Radiolabel recovery,[43],9.95 ugequiv/g
same,Radiolabel recovery,Lung [44],405 ugequiv/g
same,Radiolabel recovery,Plasma [45],12.4 ugequiv/g
same,Radiolabel recovery,[46],18.3 ugequiv/g
same,Radiolabel recovery,[47],7.74 ugequiv/g
same,Radiolabel recovery,Plasma [48],69.5 ugequiv/g
same,Radiolabel recovery,Lung [49],96.8 ugequiv/g
same,Radiolabel recovery,Kidney [50],64.6 ugequiv/g
